Measurements as given in publication PMC10731000, “Functional characterization of three G protein-coupled acetylcholine receptors in parasitic nematode Trichinella spiralis” (International Journal for Parasitology: Drugs and Drug …, 2023).
“Also recorded” adds a separate entry of the source. Structures can show the parent of a compound that is named as a salt. Where two headings read alike, the source gives them in different places.

How the values were obtained:
TsGAR-1 [1] = molecular target: T1, TsGAR-1 (Trichinella spiralis, UniProt A0A0V1C1R2); assay: Aequorin calcium mobilization agonist assay in CHO-K1 cells expressing TsGAR-1; format: cell-based; details: for ACh-mediated calcium mobilization via TsGAR-1 (in words): Fig. 4
T1 sequence (A0A0V1C1R2 entry or part of it): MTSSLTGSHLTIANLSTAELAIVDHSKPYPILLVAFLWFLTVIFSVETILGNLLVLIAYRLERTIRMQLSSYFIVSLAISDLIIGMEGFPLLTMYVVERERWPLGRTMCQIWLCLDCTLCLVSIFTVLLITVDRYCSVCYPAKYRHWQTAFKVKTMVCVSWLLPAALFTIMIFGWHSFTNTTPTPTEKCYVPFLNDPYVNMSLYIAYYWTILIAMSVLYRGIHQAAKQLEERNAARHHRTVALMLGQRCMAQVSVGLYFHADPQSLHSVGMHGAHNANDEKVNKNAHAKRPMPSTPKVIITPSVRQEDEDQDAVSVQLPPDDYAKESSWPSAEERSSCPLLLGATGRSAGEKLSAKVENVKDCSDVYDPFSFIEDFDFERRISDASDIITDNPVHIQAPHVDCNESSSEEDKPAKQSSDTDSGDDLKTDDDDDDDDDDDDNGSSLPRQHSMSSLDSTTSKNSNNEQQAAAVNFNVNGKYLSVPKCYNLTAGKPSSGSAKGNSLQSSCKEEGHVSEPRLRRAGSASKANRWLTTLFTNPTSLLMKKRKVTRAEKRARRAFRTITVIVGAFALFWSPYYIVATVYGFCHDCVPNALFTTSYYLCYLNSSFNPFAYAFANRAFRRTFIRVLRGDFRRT
Description: (§1) T. spiralis GARs were heterologously expressed in CHO–K1 cells (Sigma) along with the aequorin reporter—with or without the wild-type human G protein alpha 15 subunit (Gα15(16)) (cDNA Resource Center, Bloomsburg University of Pennsylvania)—to observe activation of the receptor by monitoring bioluminescence triggered by the mobilization of intracellular calcium ([Offermanns and Simon, 1995]; [Park et al., 2002]). Therefore, there were two types of transient expression: i) TsGAR-1, -2, or -3/aequorin/Gα15(16); and ii) TsGAR-1, -2, or -3/aequorin. The use of Gα15(16) in the first assay is due to its highly efficient way of linking calcium mobilization signaling pathways to GPCRs that are preferentially coupling with Gi/o or Gs protein members ([Offermanns and Simon, 1995]).
(§2) For handling cell lines, all transfection details, and monitoring receptor activities, we followed the previously published study ([Šimo et al., 2011], [2013]; [Mateos-Hernández et al., 2020]). Briefly, CHO–K1 cells were kept in growth medium (Ham's F12 Media with 10% fetal bovine serum) until 70% of confluence was reached. FuGENE® HD Transfection Reagent (Promega) was then used to transfect the plasmid constructs. Prior to the assay, the cells were pre-equilibrated with coelenterazine h (Promega) for 3 h at room temperature. The assay was performed in opaque 96-well microplates (Nunc) using either Fluostar Omega (BMG Labtech) or GloMax® Plate Reader (Promega). In agonist assays, 50 μL of various doses of agonistic ligands were added to wells in triplicate, followed by injection of 50μL/∼15,000 of CHO–K1 cells. Immediately after the cell injections, luminescence values were monitored for 25 s and their integrated values over time were normalized to the largest positive control response in each plate (45 μM ACh) after background noise was subtracted. When performing the antagonist assay, cells were pre-incubated with different doses of antagonistic ligands for 5 min in RT (in a 96-well plate) and subsequently a 50 μL of 10 μM ACh solution was injected into the wells. The changes in luminescence were measured for 25 s immediately after injecting ACh, and time integrated values were normalized to the response of those wells in each plate that only contained cells with medium. A dose-response curve was plotted afterwards for each data set and half-maximum response values (EC50 or IC50) along the Hill coefficient (nH) were calculated using GraphPad Prism 8.0 (GraphPad Software). Two and three biological replicates were performed for the testing of T. spiralis GARs with or without the Gα15(16) and agonistic or antagonistic assay, respectively, with three technical replicates for each ligand. In terms of negative controls, a mock transfection was performed using empty pcDNA3.1 (+) plasmid, with an aequorin reporter and Gα15(16) subunit. To confirm the specificity of T. spiralis GAR-1, -2, and -3 affinity, we tested dopamine, octopamine and norepinephrine chemical agents.

TsGAR-2 [2] = molecular target: T2, TsGAR-2 (Trichinella spiralis, UniProt E5SAZ1); assay: Aequorin calcium mobilization agonist assay in CHO-K1 cells expressing TsGAR-2; format: cell-based; details: for ACh-mediated calcium mobilization via TsGAR-2 (in words): Fig. 4
T2 sequence (E5SAZ1 entry or part of it): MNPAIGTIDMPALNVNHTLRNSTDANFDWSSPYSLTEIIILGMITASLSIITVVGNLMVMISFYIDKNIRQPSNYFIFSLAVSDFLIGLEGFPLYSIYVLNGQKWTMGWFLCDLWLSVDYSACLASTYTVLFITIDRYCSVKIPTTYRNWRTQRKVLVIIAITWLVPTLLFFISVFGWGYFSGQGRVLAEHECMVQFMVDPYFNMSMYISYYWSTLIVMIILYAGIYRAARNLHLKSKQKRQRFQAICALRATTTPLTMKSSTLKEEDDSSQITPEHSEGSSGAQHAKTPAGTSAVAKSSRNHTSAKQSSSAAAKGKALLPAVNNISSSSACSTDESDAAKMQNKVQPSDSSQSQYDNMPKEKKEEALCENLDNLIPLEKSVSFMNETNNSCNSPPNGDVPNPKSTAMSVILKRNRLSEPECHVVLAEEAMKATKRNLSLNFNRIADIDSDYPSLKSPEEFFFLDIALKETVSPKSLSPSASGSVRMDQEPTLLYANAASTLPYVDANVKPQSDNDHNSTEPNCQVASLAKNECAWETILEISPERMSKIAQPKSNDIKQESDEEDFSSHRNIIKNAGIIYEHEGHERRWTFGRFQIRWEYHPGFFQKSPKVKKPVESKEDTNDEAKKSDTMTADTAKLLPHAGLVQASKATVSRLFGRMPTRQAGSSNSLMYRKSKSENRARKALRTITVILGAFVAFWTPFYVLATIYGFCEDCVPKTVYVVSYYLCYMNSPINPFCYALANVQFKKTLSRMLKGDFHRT
Description: as §1, §2

TsGAR-3 [3] = molecular target: T3, TsGAR-3 (Trichinella spiralis, UniProt E5S5F5); assay: Aequorin calcium mobilization agonist assay in CHO-K1 cells expressing TsGAR-3; format: cell-based; details: for ACh-mediated calcium mobilization via TsGAR-3 (in words): Fig. 4
T3 sequence (E5S5F5 entry or part of it): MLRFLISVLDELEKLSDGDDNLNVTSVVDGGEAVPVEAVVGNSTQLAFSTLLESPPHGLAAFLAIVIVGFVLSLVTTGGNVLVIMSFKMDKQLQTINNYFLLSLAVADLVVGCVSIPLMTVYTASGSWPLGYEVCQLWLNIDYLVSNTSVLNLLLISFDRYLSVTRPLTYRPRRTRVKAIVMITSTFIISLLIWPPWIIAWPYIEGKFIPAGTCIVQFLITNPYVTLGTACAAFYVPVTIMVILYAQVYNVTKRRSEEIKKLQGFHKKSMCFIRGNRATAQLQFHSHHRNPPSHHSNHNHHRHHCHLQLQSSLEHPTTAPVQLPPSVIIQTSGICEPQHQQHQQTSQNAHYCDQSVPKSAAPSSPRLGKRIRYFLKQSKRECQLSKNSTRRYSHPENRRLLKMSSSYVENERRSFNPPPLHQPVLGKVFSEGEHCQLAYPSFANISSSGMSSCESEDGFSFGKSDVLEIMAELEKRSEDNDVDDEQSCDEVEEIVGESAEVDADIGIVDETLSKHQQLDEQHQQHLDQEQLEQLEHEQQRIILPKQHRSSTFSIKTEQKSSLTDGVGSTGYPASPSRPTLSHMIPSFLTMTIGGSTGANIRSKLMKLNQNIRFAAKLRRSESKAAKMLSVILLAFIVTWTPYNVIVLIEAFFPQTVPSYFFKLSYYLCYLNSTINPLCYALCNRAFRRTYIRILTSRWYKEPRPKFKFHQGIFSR
Description: as §1, §2

TsGAR-1 [4] = molecular target: T1, TsGAR-1; assay: Aequorin antagonist assay (block of 10 μM ACh response) in CHO-K1 cells expressing TsGAR-1; format: cell-based; details: co-expressed with Gα15(16)
Description: as §1
as §2, with “In terms of negative controls, a mock transfection was performed using empty pcDNA3.1 (+) plasmid, with an aequorin reporter and Gα15(16) subunit. To confirm the specificity of T. spiralis GAR-1, -2, and -3 affinity, we tested dopamine, octopamine and norepinephrine chemical agents.” left out

TsGAR-2 [5] = molecular target: T2, TsGAR-2; assay: Aequorin antagonist assay (block of 10 μM ACh response) in CHO-K1 cells expressing TsGAR-2; format: cell-based; details: co-expressed with Gα15(16)
Description: as §1, §2

TsGAR-3 [6] = molecular target: T3, TsGAR-3; assay: Aequorin antagonist assay (block of 10 μM ACh response) in CHO-K1 cells expressing TsGAR-3; format: cell-based; details: for nH (Hill coefficient), antagonist, TsGAR-3 / antagonist effect on TsGAR-3 (in words): without Gα15(16)
Procedure: Therefore, there were two types of transient expression: i) TsGAR-1, -2, or -3/aequorin/Gα15(16); and ii) TsGAR-1, -2, or -3/aequorin.
as §2, with “Briefly,” for “For handling cell lines, all transfection details, and monitoring receptor activities, we followed the previously published study ([Šimo et al., 2011], [2013]; [Mateos-Hernández et al., 2020]). Briefly,”, “Immediately after the cell injections, luminescence values were monitored for 25 s and their integrated values over time were normalized to the largest positive control response in each plate (45 μM ACh) after background noise was subtracted.” left out

C. elegans GAR-1 = tested on: C. elegans GAR-1; design: method as in Lee et al., 1999, Lee et al., 2000; details: ref Lee et al., 1999, Lee et al., 2000; cited from earlier work
A. suum GAR-1 = tested on: A. suum GAR-1; design: method as in Kimber et al., 2009; details: ref Kimber et al., 2009; cited from earlier work
D. melanogaster mAChR-B = tested on: D. melanogaster mAChR-B; design: method as in Collin et al., 2013; details: ref Collin et al., 2013, cited from earlier work; for antagonist effect on D. melanogaster mAChR-B (in words): same expression system as this study
T. castaneum mAChR-B = tested on: T. castaneum mAChR-B; design: method as in Collin et al., 2013; details: ref Collin et al., 2013, cited from earlier work; for antagonist effect on T. castaneum mAChR-B (in words): same expression system as this study
[7] = agonist, co-expressed with Gα15(16)
[8] = expressed alone, without Gα15(16)
[9] = times lower sensitivity than mAChR-A

C[N+](C)(C)CCOC(N)=O [Carbachol, carbamoylcholine chloride]
EC50 (TsGAR-1 [1]): 2050 ± 235 nM
nH (Hill coefficient), agonist, TsGAR-1 (TsGAR-1 [1]; [7]): 0.8693
EC50 (TsGAR-2 [2]): 2670 ± 508 nM
nH (Hill coefficient), agonist, TsGAR-2 (TsGAR-2 [2]; [7]): 0.9531
EC50 (TsGAR-3 [3]): 1930 ± 256 nM
nH (Hill coefficient), agonist, TsGAR-3 (TsGAR-3 [3]; without Gα15(16)): 0.9117

CN1[C@@H]2CC[C@H]1C[C@@H](OC(=O)C(CO)c1ccccc1)C2 (stereo partly shown) [Atropine, atropine]
antagonist effect on TsGAR-1 (in words) (TsGAR-1 [4]): not effective in blocking; also recorded: totally ineffective
antagonist effect on TsGAR-2 (in words) (TsGAR-2 [5]): not effective in blocking
IC50 (TsGAR-3 [6]): 222 ± 42.7 nM
nH (Hill coefficient), antagonist, TsGAR-3 (TsGAR-3 [6]): −0.8748
antagonist effect on TsGAR-3 (in words) (TsGAR-3 [6]): effectively inhibited
antagonist effect on C. elegans GAR-1 (in words) (C. elegans GAR-1): effective in inhibiting; also recorded: effectively blocked
antagonist effect on A. suum GAR-1 (in words) (A. suum GAR-1): effective in inhibiting; also recorded: effectively blocked
antagonist effect on D. melanogaster mAChR-B (in words) (D. melanogaster mAChR-B): remained unaffected
antagonist effect on T. castaneum mAChR-B (in words) (T. castaneum mAChR-B): remained unaffected

CN1[C@@H]2C[C@@H](OC(=O)[C@H](CO)c3ccccc3)C[C@H]1[C@@H]1O[C@@H]12 [Scopolamine, (−)-scopolamine hydrobromide trihydrate]
antagonist effect on TsGAR-1 (in words) (TsGAR-1 [4]): not effective in blocking
antagonist effect on TsGAR-2 (in words) (TsGAR-2 [5]): not effective in blocking
IC50 (TsGAR-3 [6]): 27.3 ± 6.3 nM
nH (Hill coefficient), antagonist, TsGAR-3 (TsGAR-3 [6]): −1.151
antagonist effect on TsGAR-3 (in words) (TsGAR-3 [6]): effectively inhibited
antagonist effect on D. melanogaster mAChR-B (in words) (D. melanogaster mAChR-B): remained unaffected
antagonist effect on T. castaneum mAChR-B (in words) (T. castaneum mAChR-B): remained unaffected

CC(=O)OCC[N+](C)(C)C [Acetylcholine, acetylcholine chloride]
EC50 (TsGAR-1 [1]; agonist, CHO cells, co-expressed with Gα15(16), SE of three biological replications, read-out: EC50 ± SE (nM), TsGAR-1): 194 ± 18.1 nM
nH (Hill coefficient), agonist, TsGAR-1 (TsGAR-1 [1]; [7]): 0.8621
agonist activity on TsGAR-1 (in words) (TsGAR-1 [1]; co-expressed with Gα15(16)): potent activator
ACh-mediated calcium mobilization via TsGAR-1 (in words) (TsGAR-1 [1]; co-expressed with Gα15(16)): dose-dependent activity
ACh-mediated calcium mobilization via TsGAR-1 (in words) (TsGAR-1 [1]; [8]): effective responses
EC50 (TsGAR-2 [2]; agonist, CHO cells, co-expressed with Gα15(16), SE of three biological replications, read-out: EC50 ± SE (nM), TsGAR-2): 14.7 ± 10.8 nM
nH (Hill coefficient), agonist, TsGAR-2 (TsGAR-2 [2]; [7]): 0.5883
agonist activity on TsGAR-2 (in words) (TsGAR-2 [2]; co-expressed with Gα15(16)): potent activator
ACh-mediated calcium mobilization via TsGAR-2 (in words) (TsGAR-2 [2]; co-expressed with Gα15(16)): dose-dependent activity
ACh-mediated calcium mobilization via TsGAR-2 (in words) (TsGAR-2 [2]; [8]): effective responses
EC50 (TsGAR-3 [3]): 400 ± 73.1 nM
nH (Hill coefficient), agonist, TsGAR-3 (TsGAR-3 [3]; without Gα15(16)): 0.7319
ACh-mediated calcium mobilization via TsGAR-3 (in words) (TsGAR-3 [3]; co-expressed with Gα15(16)): dose-dependent activity
ACh-mediated calcium mobilization via TsGAR-3 (in words) (TsGAR-3 [3]; [8]): effective responses
agonist activity on TsGAR-3 (in words) (TsGAR-3 [3]; without Gα15(16)): potent activator

C[C@@H]1O[C@H](C[N+](C)(C)C)C[C@H]1O [Muscarine, (+)-muscarine chloride]
agonist activity on TsGAR-1 (in words) (TsGAR-1 [1]; co-expressed with Gα15(16)): no
EC50 (TsGAR-2 [2]): > 10000 nM
nH (Hill coefficient), agonist, TsGAR-2 (TsGAR-2 [2]; [7]): 0.8666
agonist activity on TsGAR-2 (in words) (TsGAR-2 [2]; co-expressed with Gα15(16)): low affinity
EC50 (TsGAR-3 [3]): 2500 ± 960 nM
nH (Hill coefficient), agonist, TsGAR-3 (TsGAR-3 [3]; without Gα15(16)): 0.7106
agonist activity on TsGAR-3 (in words) (TsGAR-3 [3]; without Gα15(16)): potent agonist
sensitivity of D. melanogaster mAChR-B relative to mAChR-A (D. melanogaster mAChR-B; [9]): about 1000 times
sensitivity of T. castaneum mAChR-B relative to mAChR-A (T. castaneum mAChR-B; [9]): ~100 times

COC(=O)C1=CCCN(C)C1 [Arecoline, arecoline hydrobromide]
EC50 (TsGAR-1 [1]): 4630 ± 841 nM
nH (Hill coefficient), agonist, TsGAR-1 (TsGAR-1 [1]; [7]): 1.054
agonist activity on TsGAR-1 (in words) (TsGAR-1 [1]; co-expressed with Gα15(16)): partial agonist
agonist activity on TsGAR-2 (in words) (TsGAR-2 [2]; co-expressed with Gα15(16)): did not detect any arecoline-triggered activation
EC50 (TsGAR-3 [3]): 457 ± 156 nM
nH (Hill coefficient), agonist, TsGAR-3 (TsGAR-3 [3]; without Gα15(16)): 1.199
agonist activity on TsGAR-3 (in words) (TsGAR-3 [3]; without Gα15(16)): partial agonist
agonist activity on A. suum GAR-1 (in words) (A. suum GAR-1): effectively activate

CC(C[N+](C)(C)C)OC(N)=O (stereo not shown) [Bethanechol, bethanechol chloride]
EC50 (TsGAR-1 [1]): > 10000 nM
nH (Hill coefficient), agonist, TsGAR-1 (TsGAR-1 [1]; [7]): 0.9289
agonist activity on TsGAR-1 (in words) (TsGAR-1 [1]; co-expressed with Gα15(16)): low potency
EC50 (TsGAR-2 [2]): > 10000 nM
nH (Hill coefficient), agonist, TsGAR-2 (TsGAR-2 [2]; [7]): 0.8738
agonist activity on TsGAR-2 (in words) (TsGAR-2 [2]; co-expressed with Gα15(16)): low potency
EC50 (TsGAR-3 [3]): > 10000 nM
nH (Hill coefficient), agonist, TsGAR-3 (TsGAR-3 [3]; without Gα15(16)): 1.390
agonist activity on TsGAR-3 (in words) (TsGAR-3 [3]; without Gα15(16)): low potency
agonist activity on A. suum GAR-1 (in words) (A. suum GAR-1): agonistic effect was shown
